# Earlier results, collected in PubChem BioAssay AID1259409 (Chemical Carcinogenesis Research Information System (CCRIS), 2018).
# System: rodent chemically induced tumor inhibition, incidence and multiplicity
# Assay: CCRIS tumor inhibitor studies
compound,measurement,setting,value
COC(=O)[C@H](CCSC)NC(C)=O,"tumour outcome (control, treated, inhibition, significance)","Carcinogen: 7,12-DIMETHYLBENZ[A]ANTHRACENE, 57-97-6, Dose [Inhibitor]: 0.06 MMOL/G DIET DAILY FOR 17 WK STARTING 1 WK PRIOR TO CARCINOGEN TREATMENT AND CONTINUING THROUGH THE END OF THE STUDY, Route [Inhibitor]: ORAL, Species: RAT, Strain/Sex: SPRAGUE-DAWLEY/FEMALE, Target Tissue: Type of Lesion: MAMMARY GLAND: TUMOR, Dose [Carcinogen]: 12 MG IN 1 ML OLIVE OIL ONCE, Promoter: NONE USED","59%, 75%, -27%, not calculated"
CCNC(=O)/C=C(C)/C=C/C=C(C)/C=C/c1c(C)cc(OC)c(C)c1C,"tumour outcome (control, treated, inhibition, significance)","Carcinogen: N,N-DIMETHYLNITROSAMINE, 62-75-9, Dose [Inhibitor]: 60 MG/KG OF DIET DAILY FOR 26 WK STARTING 2 D AFTER CARCINOGEN TREATMENT AT 6 WK OF AGE AND THEN OBSERVED UNTIL DEATH (S, Route [Inhibitor]: ORAL, Species: RAT, Strain/Sex: WISTAR/FEMALE, Target Tissue: Type of Lesion: KIDNEY: EPITHELIAL TUMOR, Dose [Carcinogen]: 40 MG/KG BW ONCE, Promoter: NONE USED","13/27 (48%), 21/35 (60%), -25%, not significant"
same,"tumour outcome (control, treated, inhibition, significance)","Carcinogen: N,N-DIMETHYLNITROSAMINE, 62-75-9, Dose [Inhibitor]: 60 MG/KG OF DIET DAILY FOR 26 WK STARTING 2 D AFTER CARCINOGEN TREATMENT AT 6 WK OF AGE AND THEN OBSERVED UNTIL DEATH (S, Route [Inhibitor]: ORAL, Species: RAT, Strain/Sex: WISTAR/FEMALE, Target Tissue: Type of Lesion: KIDNEY: MESENCHYMAL TUMOR, Dose [Carcinogen]: 40 MG/KG BW ONCE, Promoter: NONE USED","22/27 (82%), 26/35 (74%), 10%, not significant"
same,"tumour outcome (control, treated, inhibition, significance)","Carcinogen: N-METHYL-N-NITROSOUREA, 684-93-5, Dose [Inhibitor]: 60 MG/KG OF DIET DAILY STARTING 5 D AFTER FINAL INSTILLATION OF CARCINOGEN AND CONTINUING THROUGH END OF STUDY (STUDY DU, Route [Inhibitor]: ORAL, Species: RAT, Strain/Sex: F344/MALE, Target Tissue: Type of Lesion: COLON: INVASIVE TUBULOPAPILLARY ADENOCARCINOMA, Dose [Carcinogen]: 0.5 MG 2/WK FOR 8 WK, Promoter: NONE USED","33%, 19%, 42%, not significant"
same,"tumour outcome (control, treated, inhibition, significance)","Carcinogen: N-METHYL-N-NITROSOUREA, 684-93-5, Dose [Inhibitor]: 60 MG/KG OF DIET DAILY STARTING 5 D AFTER FINAL INSTILLATION OF CARCINOGEN AND CONTINUING THROUGH END OF STUDY (STUDY DU, Route [Inhibitor]: ORAL, Species: RAT, Strain/Sex: F344/MALE, Target Tissue: Type of Lesion: COLON: INVASIVE TUBULOPAPILLARY ADENOCARCINOMA, Dose [Carcinogen]: 1 MG 2/WK FOR 8 WK, Promoter: NONE USED","80%, 85%, -6%, not significant"
same,"tumour outcome (control, treated, inhibition, significance)","Carcinogen: N-METHYL-N-NITROSOUREA, 684-93-5, Dose [Inhibitor]: 60 MG/KG OF DIET DAILY STARTING 5 D AFTER FINAL INSTILLATION OF CARCINOGEN AND CONTINUING THROUGH END OF STUDY (STUDY DU, Route [Inhibitor]: ORAL, Species: RAT, Strain/Sex: F344/MALE, Target Tissue: Type of Lesion: COLON: INVASIVE TUBULOPAPILLARY ADENOCARCINOMA, Dose [Carcinogen]: 2 MG 2/WK FOR 8 WK, Promoter: NONE USED","95%, 100%, -5%, not significant"
CS(=O)(=O)c1ccc(C2=C(c3ccccc3)C(=O)OC2)cc1,"tumour outcome (control, treated, inhibition, significance)","Carcinogen: N-METHYL-N-NITROSOUREA, 684-93-5, Dose [Inhibitor]: 0.001% IN DIET, BEGINNING 7 D BEFORE FIRST CARCINOGEN DOSE FOR 19 WK (STUDY DURATION: 19 WK), Route [Inhibitor]: ORAL, Species: RAT, Strain/Sex: SPRAGUE-DAWLEY/FEMALE, Target Tissue: Type of Lesion: MAMMARY GLAND: TUMOR, Dose [Carcinogen]: 50 MG/KG 1 WK FOR 2 WK","16/23 (69.6%), 10/24 (41.7%), 40%, not significant"
same,"tumour outcome (control, treated, inhibition, significance)","Carcinogen: N-METHYL-N-NITROSOUREA, 684-93-5, Dose [Inhibitor]: 0.005% IN DIET, BEGINNING 7 D BEFORE FIRST CARCINOGEN DOSE FOR 19 WK (STUDY DURATION: 19 WK), Route [Inhibitor]: ORAL, Species: RAT, Strain/Sex: SPRAGUE-DAWLEY/FEMALE, Target Tissue: Type of Lesion: MAMMARY GLAND: TUMOR, Dose [Carcinogen]: 50 MG/KG 1 WK FOR 2 WK","16/23 (69.6%), 10/25 (40%), 42.5%, p< 0.05"
O=c1ccc2cc(O)c(O)cc2o1,"tumour outcome (control, treated, inhibition, significance)","Carcinogen: 7,12-DIMETHYLBENZ[A]ANTHRACENE, 57-97-6, Dose [Inhibitor]: 0, 0.03% IN HIGH-FAT (20% SOYBEAN OIL) DIET FOR 19 WK BEGINNING 1 WK POST CARCINOGEN DOSE (STUDY DURATION: 20 WK), Route [Inhibitor]: ORAL, Species: RAT, Strain/Sex: SPRAGUE-DAWLEY/FEMALE, Target Tissue: Type of Lesion: MAMMARY GLAND: TUMOR, Dose [Carcinogen]: 5 MG ONCE, Promoter: NONE USED","13/15 (87%), 8/15 (53%), 39%, p<0.05"
same,"tumour outcome (control, treated, inhibition, significance)","Carcinogen: 7,12-DIMETHYLBENZ[A]ANTHRACENE, 57-97-6, Dose [Inhibitor]: 0, 0.03% IN HIGH-FAT (20% SOYBEAN OIL) DIET FOR 20 WK BEGINNING 1 WK POST CARCINOGEN DOSE (STUDY DURATION: 21 WK), Route [Inhibitor]: ORAL, Species: RAT, Strain/Sex: SPRAGUE-DAWLEY/FEMALE, Target Tissue: Type of Lesion: MAMMARY GLAND: ADENOCARCINOMA, Dose [Carcinogen]: 5 MG ONCE, Promoter: NONE USED","17/20 (85%), 10/19 (53%), 38%, p<0.05"
same,"tumour outcome (control, treated, inhibition, significance)","Carcinogen: 7,12-DIMETHYLBENZ[A]ANTHRACENE, 57-97-6, Dose [Inhibitor]: 0, 0.03% IN LOW-FAT (0.5% SOYBEAN OIL) DIET FOR 19 WK BEGINNING 1 WK POST CARCINOGEN DOSE (STUDY DURATION: 20 WK), Route [Inhibitor]: ORAL, Species: RAT, Strain/Sex: SPRAGUE-DAWLEY/FEMALE, Target Tissue: Type of Lesion: MAMMARY GLAND: TUMOR, Dose [Carcinogen]: 5 MG ONCE, Promoter: NONE USED","8/15 (53%), 3/15 (20%), 62%, not significant"
same,"tumour outcome (control, treated, inhibition, significance)","Carcinogen: 7,12-DIMETHYLBENZ[A]ANTHRACENE, 57-97-6, Dose [Inhibitor]: 0, 0.03% IN LOW-FAT (0.5% SOYBEAN OIL) DIET FOR 20 WK BEGINNING 1 WK POST CARCINOGEN DOSE (STUDY DURATION: 21 WK), Route [Inhibitor]: ORAL, Species: RAT, Strain/Sex: SPRAGUE-DAWLEY/FEMALE, Target Tissue: Type of Lesion: MAMMARY GLAND: ADENOCARCINOMA, Dose [Carcinogen]: 5 MG ONCE, Promoter: NONE USED","10/18 (56%), 4/22 (18%), 68%, p<0.05"
same,"tumour outcome (control, treated, inhibition, significance)","Carcinogen: N-METHYL-N-NITROSOUREA, 684-93-5, Dose [Inhibitor]: 0, 0.03% IN DIET FOR 24 WK BEGINNING 1 WK POST CARCINOGEN DOSE (STUDY DURATION: 25 WK), Route [Inhibitor]: ORAL, Species: RAT, Strain/Sex: SPRAGUE-DAWLEY/FEMALE, Target Tissue: Type of Lesion: MAMMARY GLAND: TUMOR, Dose [Carcinogen]: 50 MG/KG ONCE, Promoter: NONE USED","24/30 (80%), 17/31 (55%), 31%, p<0.05"
CC(C)[C@@H](C)/C=C/[C@@H](C)[C@H]1CC[C@H]2C3=CC=C4C[C@@H](O)CC[C@]4(C)[C@H]3CC[C@]12C,"tumour outcome (control, treated, inhibition, significance)","Carcinogen: 7,12-DIMETHYLBENZ[A]ANTHRACENE, 57-97-6, Dose [Inhibitor]: 0, 2 UMOL IN 100 µL ACETONE:DIMETHYLSULFOXIDE (9:1) 2/WK FOR 18 WK APPLIED 30 MIN PRIOR TO EACH PROMOTER DOSE (STUDY DUR, Route [Inhibitor]: DERMAL, Species: MOUSE, Strain/Sex: ICR/FEMALE, Target Tissue: Type of Lesion: SKIN: PAPILLOMA, Dose [Carcinogen]: 50 UG IN 100 µL ACETONE ONCE, Promoter: 12-O-TETRADECANOYLPHORBOL-13-ACETATE, 16561-29-8","100%, 40%, 60%, not calculated"
C=CC(C)(O)CCC=C(C)C (stereo unspecified),"tumour outcome (control, treated, inhibition, significance)","Carcinogen: AZOXYMETHANE, 25843-45-2, Dose [Inhibitor]: 0, 5 MG/G IN DIET FOR 22 WK BEGINNING 3 D POST LAST CARCINOGEN DOSE (STUDY DURATION: 25 WK), Route [Inhibitor]: ORAL, Species: RAT, Strain/Sex: F344/MALE, Target Tissue: Type of Lesion: DUODENUM: ADENOCARCINOMA, Dose [Carcinogen]: 15 MG/KG BW 2/WK FOR 3 WK, Promoter: NONE USED","50%, 26%, 48%, not significant"
same,"tumour outcome (control, treated, inhibition, significance)","Carcinogen: AZOXYMETHANE, 25843-45-2, Dose [Inhibitor]: 0, 5 MG/G IN DIET FOR 22 WK BEGINNING 3 D POST LAST CARCINOGEN DOSE (STUDY DURATION: 25 WK), Route [Inhibitor]: ORAL, Species: RAT, Strain/Sex: F344/MALE, Target Tissue: Type of Lesion: LARGE BOWEL: ADENOMATOUS POLYP, Dose [Carcinogen]: 15 MG/KG BW 2/WK FOR 3 WK, Promoter: NONE USED","82%, 79%, 4%, not significant"
